Experimental data as given in patent US10501449B2 (priority 2018, dated 2019).
pIC50: −log10 of the molar value. Read-outs that look alike come from different tables or passages of the source.

Tests used:
hROMK (human Kir1.1) [1] = biological target: T1, hROMK (human Kir1.1) (Homo sapiens (Human), UniProt P48048); test: cell-based; type: cell-based; conditions: whole-cell manual patch clamp, CHO T-Rex hROMK stable cell line, voltage step to -120 mV, Ba2+-subtracted hROMK current; read-out: ROMK EP IC50
Protocol: ROMK Manual Patch Clamp Assay
Cell culture conditions: Cells were maintained in conditions similar to those for Thallium flux assay. hROMK channel expression was induced by adding 0.6 μg/ml of Doxycycline 16-24 hrs prior to the experiments. On the day of experiment, the cells were dissociated using Versene, resuspended in growth media and plated onto coverslips 15 minutes prior to use.
Electrophysiology: The coverslip plated with cells was placed in the experiment chamber perfused with bath solution composed of (in mM): 135 NaCl, 5 KCl, 2 CaCl2, 1 MgCl2, 10 HEPES, 5 Glucose (pH 7.4). Patch pipettes with resistance between 2-5 Megaohms, when filled with a solution containing (in mM): 135 KCl, 1 EGTA, 1 MgCl2, 10 HEPES, 2 Na2ATP (pH 7.3), were used to form gigaseals. The cells were voltage clamped at −75 mV in whole-cell configuration using an Axopatch 200b or Multiclamp 700b (Molecular Devices) amplifier controlled by pClamp Software (Molecular Devices). The current was recorded by applying a voltage step to −120 mV every 10 seconds. […] At the end of the experiment, the cells were perfused with bath solution containing 2 mM Ba^2+ to isolate the contribution of hROMK current.
Data analysis: Raw current values (5 traces each for control, different compound concentration and Ba^2+ treatment groups) were exported from Clampfit into Microsoft Excel where the current remaining after application of Ba^2+ was subtracted from raw current to obtain hROMK specific current.

hROMK (human Kir1.1) [2] = biological target: T1, hROMK (human Kir1.1); test: cell-based; conditions: CHO T-Rex hROMK stable cell line; thallium flux; 10-point concentration response curve; read-out: Human ROMK Th Flux IC50
Protocol: Solutions and reagents: Thallium flux assay was performed using FluxOR kit (F10017, Life Technologies). Loading buffer, assay buffer and stimulus buffer were prepared using kit components. HBSS (Hank's balanced salt solution, Cat#14025-092) was purchased separately from Life Technologies.
To prepare 10 ml of loading buffer: 10 μl of FluxOR dye (reconstituted in DMSO) was first added to 100 μl of powerload concentrate and this mix along with 100 μl of Probenicid (100×) was then added to 9.79 ml of HBSS. Assay buffer (10 ml) was prepared by addition of 2 ml of FluxOR chloride free buffer (5×), 100 μl of Probenicid (100×), and 0.2 ml of Ouabain (13.77 mM) to 7.7 ml of deionized water. Stimulus buffer was composed of 15 mM Tl2SO4, 0.75 mM K2SO4 in FluxOR chloride free buffer (diluted to 1× using deionized water). The final concentration of Tl2SO4 and K2SO4 in the assay plate was 3 mM and 0.15 mM, respectively.
Plating and induction of cells: The CHO T-Rex hROMK (human Kir1.1) stable cell line was maintained in Ham's F12 media supplemented with 10% FBS, 1% Penicillin-Streptomycin, 500 μg/ml Zeocin and 10 μg/ml Blasticidin at 37° C. in a 5% CO2 incubator. One day before the experiment, the cells were dissociated by incubation with Versene solution (15040-066, Life Technologies) for 10 minutes at 37° C. followed by addition of growth media. The cell suspension was centrifuged at 1200 rpm for 5 min. After discarding the supernatant, the cells were resuspended in fresh growth media and cell concentration was determined using a hemocytometer. Next, 0.5 μg/ml of Doxycycline was added to the cell suspension to induce hROMK channel expression and 50 μl (10,000 cells/well) of cell suspension was added to each well of a poly-D lysine coated 384 well black, optically clear bottom plate (6007718, Perkin Elmer). The assay plate was kept at 37° C. in a 5% CO2 incubator.
Assay protocol: On the day of experiment, media was removed and loading buffer was added (30 μl/well) to the assay plate. The cells were incubated in the loading buffer for 30 minutes at 37° C. The loading buffer was then replaced by assay buffer (30 μl/well) followed by addition of test compounds or controls. The cells were incubated with compounds for 30 minutes and the plate was then mounted on FlexStation (Molecular Devices) for fluorescence read out with excitation and emission wavelengths at 488 and 525 nm, respectively. Each well was read for 90 sec at 2 sec interval and the stimulus buffer was added after 20 seconds of baseline recording. The final DMSO concentration was either 0.5 or 1% in the assay plate. Positive and negative controls were defined by addition of DMSO or 3 μM of a standard ROMK inhibitor, respectively, to the wells instead of a test compound.
A 10-point concentration response curve was used to estimate the IC50 value of test compounds.

hERG channels = hERG channels (Homo sapiens (Human), UniProt Q12809); test: hERG Manual Patch Clamp Assay; type: cell-based; conditions: HEK 293 cells stably expressing hERG channels; for inhibition at 1 µM: human, pH 7.4, 1 uM, read-out: hERG EP % Inh @ 1 uM
Chain of hERG channels (Q12809 whole entry): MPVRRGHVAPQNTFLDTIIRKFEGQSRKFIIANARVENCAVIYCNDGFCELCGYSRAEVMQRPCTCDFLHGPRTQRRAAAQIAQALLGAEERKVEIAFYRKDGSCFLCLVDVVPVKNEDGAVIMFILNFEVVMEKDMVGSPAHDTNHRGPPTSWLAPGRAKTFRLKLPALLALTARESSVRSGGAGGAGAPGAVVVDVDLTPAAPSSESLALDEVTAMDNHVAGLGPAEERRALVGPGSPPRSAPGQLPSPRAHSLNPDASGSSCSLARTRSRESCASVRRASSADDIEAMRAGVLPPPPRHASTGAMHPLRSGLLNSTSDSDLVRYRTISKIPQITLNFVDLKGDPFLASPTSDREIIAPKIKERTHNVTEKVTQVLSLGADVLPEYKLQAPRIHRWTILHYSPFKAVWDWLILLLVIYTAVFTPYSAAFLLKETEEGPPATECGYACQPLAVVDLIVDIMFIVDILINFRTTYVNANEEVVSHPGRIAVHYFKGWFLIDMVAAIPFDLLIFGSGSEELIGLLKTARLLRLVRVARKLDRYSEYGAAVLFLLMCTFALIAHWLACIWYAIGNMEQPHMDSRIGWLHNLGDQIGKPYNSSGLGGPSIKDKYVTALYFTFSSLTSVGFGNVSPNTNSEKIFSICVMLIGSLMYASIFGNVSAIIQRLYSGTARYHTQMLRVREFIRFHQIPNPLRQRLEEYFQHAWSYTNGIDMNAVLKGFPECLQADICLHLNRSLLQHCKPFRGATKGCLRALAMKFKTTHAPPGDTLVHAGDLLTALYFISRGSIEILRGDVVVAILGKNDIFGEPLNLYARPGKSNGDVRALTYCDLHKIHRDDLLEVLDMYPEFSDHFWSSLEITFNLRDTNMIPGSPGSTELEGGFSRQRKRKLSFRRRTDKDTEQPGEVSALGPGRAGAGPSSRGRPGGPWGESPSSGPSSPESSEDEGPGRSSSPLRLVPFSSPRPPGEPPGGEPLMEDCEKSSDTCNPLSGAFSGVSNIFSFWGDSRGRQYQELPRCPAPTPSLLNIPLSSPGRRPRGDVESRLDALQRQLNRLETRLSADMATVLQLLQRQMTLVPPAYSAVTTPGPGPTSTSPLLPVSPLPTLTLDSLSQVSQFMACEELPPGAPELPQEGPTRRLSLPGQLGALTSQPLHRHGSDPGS
Protocol: hERG electrophysiology assay: The experimental compounds were assessed for hERG activity on HEK 293 cells stably expressing hERG channels using patch clamp technique. Coverslips plated with hERG expressing cells were placed in the experimental chamber and were perfused with a solution composed of (in mM): 140 NaCl, 4 KCl, 1.8 CaCl2, 1 MgCl2, 10 Glucose, 10 HEPES (pH 7.4, NaOH) at room temperature. Borosilicate patch pipettes had tip resistances of 2-4 Mohms when filled with an internal solution containing: 130 KCl, 1 MgCl2, 1 CaCl2, 10 EGTA, 10 HEPES, 5 ATP-K2 (pH 7.2, KOH). The cells were clamped at −80 mV in whole cell configuration using an Axopatch 200B (Axon instruments, Union City, Calif.) patch clamp amplifier controlled by pClamp (Axon instruments) software. Upon formation of a gigaseal, the following voltage protocol was repeatedly (0.05 Hz) applied to record tail currents: depolarization step from −80 mV to +20 mV for 2 seconds followed by a hyperpolarization step to −65 mV (3 seconds) to elicit tail currents. Compounds were applied after stabilization of tail current. First, tail currents were recorded in presence of extracellular solution alone (control) and subsequently, in extracellular solution containing increasing compound concentrations. Each compound concentration was applied for 2-5 minutes. The percentage inhibition at each concentration was calculated as reduction in peak tail current with respect to the peak tail current recorded in the presence of control solution. Data analysis was performed in a custom made template. The percent inhibitions at different concentrations were plotted to obtain a concentration response curve, which was subsequently fitted with a four parameter equation to calculate hERG IC50 value.

T1 sequence (P48048 whole entry): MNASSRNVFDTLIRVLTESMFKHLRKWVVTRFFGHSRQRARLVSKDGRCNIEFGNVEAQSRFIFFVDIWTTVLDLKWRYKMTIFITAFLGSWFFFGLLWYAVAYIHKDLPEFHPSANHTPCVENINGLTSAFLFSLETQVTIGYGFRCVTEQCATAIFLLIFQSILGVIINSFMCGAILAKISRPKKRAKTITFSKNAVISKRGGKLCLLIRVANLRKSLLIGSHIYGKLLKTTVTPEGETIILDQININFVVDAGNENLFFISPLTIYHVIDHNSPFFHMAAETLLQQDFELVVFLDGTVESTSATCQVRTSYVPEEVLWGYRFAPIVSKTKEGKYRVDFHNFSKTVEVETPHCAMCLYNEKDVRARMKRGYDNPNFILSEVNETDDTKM

Row | Compound | pIC50 (hROMK (human Kir1.1) [1]) | pIC50 (hROMK (human Kir1.1) [2]) | inhibition at 1 µM (hERG channels) [%] | hERG EP % Inh @ 1 uM (hERG channels; 1 uM) [%]
1 | Cc1cc(-n2cc(CN3CC(c4ccc5c(c4C)COC5=O)NCC3C)cn2)ncc1C#N (single isomer, unassigned) [Example 244-II, 4-methyl-6-(4-((2-methyl-5-(4-methyl-1-oxo-1,3-dihydroisobenzofuran-5-yl)piperazin-1-yl)methyl)-1H-pyrazol-1-yl)nicotinonitrile] | 7.66 | 7.77 |  | 
2 | Cc1c([C@@H]2CN(Cc3cn(-c4ccc5oc(=O)n(C)c5c4)nn3)CCN2)ccc2c1COC2=O [Example 61-I, (R)-3-methyl-5-(4-((3-(4-methyl-1-oxo-1,3-dihydroisobenzofuran-5-yl)piperazin-1-yl)methyl)-1H-1,2,3-triazol-1-yl)benzo[d]oxazol-2 (3H)-one] | 7.40 |  |  | 
3 | Cc1c([C@@H]2CN(Cc3cnc(-n4cc(C#N)c(C(F)F)n4)nc3)CCN2)ccc2c1COC2=O [Example 229-I, (R)-3-(difluoromethyl)-1-(5-((3-(4-methyl-1-oxo-1,3-dihydroisobenzofuran-5-yl)piperazin-1-yl)methyl)pyrimidin-2-yl)-1H-pyrazole-4-carbonitrile] |  | 7.68 | 25 | 
4 | Cc1cc(-n2cc(CN3CC(c4ccc5c(c4C)COC5=O)C(O)C(C)(C)C3)cn2)ncc1C#N (centres unmarked) [Example 116-I, 6-(4-((4-hydroxy-3,3-dimethyl-5-(4-methyl-1-oxo-1,3-dihydroisobenzofuran-5-yl)piperidin-1-yl)methyl)-1H-pyrazol-1-yl)-4-methylnicotinonitrile] |  | 7.41 | 6.4 | 
5 | Cc1c([C@@H]2CN(Cc3cnn(-c4cc(C)c5oc(=O)n(C)c5c4)c3)CCN2)ccc2c1COC2=O [Example 57-I, (R)-3,7-dimethyl-5-(4-((3-(4-methyl-1-oxo-1,3-dihydroisobenzofuran-5-yl)piperazin-1-yl)methyl)-1H-pyrazol-1-yl)benzo[d]oxazol-2(3H)-one] |  | 7.23 | 26 | 
6 | Cc1ncn(-c2ncc(CN3CCN[C@H](c4ccc5c(c4C)COC5=O)C3)cn2)c1C(F)F [Example 150-I, (R)-5-(4-((2-(5-(difluoromethyl)-4-methyl-1H-imidazol-1-yl)pyrimidin-5-yl)methyl)piperazin-2-yl)-4-methylisobenzofuran-1(3H)-one] |  | 7.00 | 14 | 
7 | Cc1cc(N2CCC(CN3CCN[C@H](c4ccc5c(c4C)COC5=O)C3)C2)ncc1C#N (single isomer, unassigned) [Example 156-I] |  | 7.85 | 51 | 
8 | Cc1c([C@@H]2CN(Cc3cnn(-c4cc(N5CCOC5=O)ccn4)c3)CCN2)ccc2c1COC2=O [Example 185-I, (R)-3-(2-(4-((3-(4-methyl-1-oxo-1,3-dihydroisobenzofuran-5-yl)piperazin-1-yl)methyl)-1H-pyrazol-1-yl)pyridin-4-yl)oxazolidin-2-one] |  | 7.00 | 9.6 | 
9 | Cc1c([C@@H]2CN(Cc3cnn(-c4ccc5oc(=O)n(C)c5c4)c3)CCO2)ccc2c1COC2=O [Example 25-I, (R)-3-methyl-5-(4-((2-(4-methyl-1-oxo-1,3-dihydroisobenzofuran-5-yl)morpholino)methyl)-1H-pyrazol-1-yl) benzo[d]oxazol-2(3H)-one] |  | 7.29 | 8.7 | 
10 | COc1nc(-n2cc(CN3C[C@@H](c4ccc5c(c4C)COC5=O)N[C@@H](C)C3)cn2)ccc1C#N [Example 93-I, 2-methoxy-6-(4-(((3S,5R)-3-methyl-5-(4-methyl-1-oxo-1,3-dihydroisobenzofur-an-5-yl)piperazin-1-yl)methyl)-1H-pyrazol-1-yl)nicotinonitrile] |  | 7.36 | 23 | 
11 | Cc1cc(-n2cc(CN3CCN[C@H](c4ccc5c(c4C)COC5=O)C3)c(C(F)F)n2)ncc1C#N [Example 233-I, (R)-6-(3-(difluoromethyl)-4-((3-(4-methyl-1-oxo-1,3-dihydroisobenzofuran-5-yl)piperazin-1-yl)methyl)-1H-pyrazol-1-yl)-4-methylnicotinonitrile] |  | 7.66 | 31 | 
12 | Cc1c([C@@H]2CN(Cc3ccc(-n4cnc(C#N)c4)nc3)CCO2)ccc2c1COC2=O [Example 37-I, (R)-1-(5-((2-(4-methyl-1-oxo-1,3-dihydroiso-benzofuran-5-yl)morpho-lino)methyl)pyridin-2-yl)-1H-imidazole-4-carbonitrile] |  | 7.80 | 6.2 | 
13 | Cc1cn(-c2ccc(CN3CCN[C@H](c4ccc5c(c4C)COC5=O)C3)c(C)n2)cn1 [Example 142-I, (R)-4-methyl-5-(4-((2-methyl-6-(4-methyl-1H-imidazol-1-yl)pyridin-3-yl)methyl)piperazin-2-yl)isobenzofuran-1(3H)-one] |  | 7.12 | 8.5 | 
14 | COc1cc(-c2ccc(CN3CCN[C@H](c4ccc5c(c4C)COC5=O)C3)cn2)ncc1C#N [Example 63-I, (R)-4-methoxy-5′-((3-(4-methyl-1-oxo-1,3-di-hydroisobenzofuran-5-yl)piperazin-1-yl)methyl)-[2,2′-bipyridine]-5-carbonitrile] |  | 7.22 | 23 | 
15 | COc1cc(-c2ccc(CN3CCO[C@H](c4ccc5c(c4C)COC5=O)C3)cn2)ncc1C#N [Example 35-I, (R)-4-methoxy-5′-((2-(4-methyl-1-oxo-1,3-di-hydroisobenzofuran-5-yl)morpholino)methyl)-[2,2′-bipyridine]-5-carbonitrile] |  | 6.92 | 20 | 
16 | Cc1c([C@@H]2CN(Cc3cnn(-c4cccc(N5CCOC5=O)n4)c3)C[C@H](C)N2)ccc2c1COC2=O [Example 249-I, 3-(6-(4-(((3S,5R)-3-methyl-5-(4-methyl-1-oxo-1,3-dihydroisobenzofuran-5-yl)piperazin-1-yl)methyl)-1H-pyrazol-1-yl)pyridin-2-yl)oxazolidin-2-one] |  | 6.92 | 9.1 | 
17 | Cc1nc(-n2cc(CN3C[C@@H](c4ccc5c(c4C)COC5=O)N[C@@H](C)C3)cn2)ncc1C#N [Example 96-I, 4-methyl-2-(4-(((3S,5R)-3-methyl-5-(4-methyl-1-oxo-1,3-dihydroisobenzofur-an-5-yl)piperazin-1-yl)methyl)-1H-pyrazol-1-yl)pyrimidine-5-carbonitrile] |  | 7.57 | 9.6 | 
18 | COc1cc(N2CC(CN3CCN[C@H](c4ccc5c(c4C)COC5=O)C3)CC2=O)ncc1C#N (stereo partly drawn) [Example 159-I, 4-methoxy-6-(4-(((R)-3-(4-methyl-1-oxo-1,3-dihydroisobenzofuran-5-yl)piperazin-1-yl)methyl)-2-oxopyrrolidin-1-yl)nicotinonitrile] |  | 7.80 | 21 | 
19 | COc1cc(-c2ncc(CN3CCO[C@H](c4ccc5c(c4C)COC5=O)C3)s2)ncc1C#N [Example 32-I, (R)-4-methoxy-6-(5-((2-(4-methyl-1-oxo-1,3-dihydroisobenzofuran-5-yl)morpholino)methyl)thiazol-2-yl)nicotino-nitrile] |  | 7.62 | 6.2 | 
20 | Cc1cc(-n2cnc(CN3CC[C@@H](O)[C@H](c4ccc5c(c4C)COC5=O)C3)c2)ncc1C#N [Example 163-I, 6-(4-(((3R,4R)-4-hydroxy-3-(4-methyl-1-oxo-1,3-dihydroisobenzofuran-5-yl)piperidin-1-yl)methyl)-1H-imidazol-1-yl)-4-methylnicotinonitrile] |  | 7.54 | 4.5 | 
21 | Cc1cn(-c2ccc(CN3CCN[C@H](c4ccc5c(c4C)COC5=O)C3)cn2)nc1C#N [Example 242-I, (R)-4-methyl-1-(5-((3-(4-methyl-1-oxo-1,3-dihydroisobenzofuran-5-yl)piperazin-1-yl)methyl)pyridin-2-yl)-1H-pyrazole-3-carbonitrile] |  | 8.00 | 36 | 
22 | Cc1cc(C#N)ccc1-n1cc(CN2CCO[C@H](c3ccc4c(c3C)COC4=O)C2)cn1 [Example 47-I, (R)-3-methyl-4-(4-((2-(4-methyl-1-oxo-1,3-dihydroisobenzofuran-5-yl)morpholino)methyl)-1H-pyrazol-1-yl) benzonitrile] |  | 7.31 | 49 | 
23 | COc1cc(-n2cnc(CN3CCO[C@H](c4ccc5c(c4C)COC5=O)C3)c2)ncc1C#N [Example 27-I, (R)-4-methoxy-6-(4-((2-(4-methyl-1-oxo-1,3-dihydroisobenzofuran-5-yl)morpholino)methyl)-1H-imidazol-1-yl) nicotinonitrile] |  | 7.49 | 11 | 
24 | Cc1c([C@@H]2CN(Cc3cnn(-c4cccc(N(C)S(C)(=O)=O)n4)c3)C[C@H](C)N2)ccc2c1COC2=O [Example 252-I, N-methyl-N-(6-(4-(((3S,5R)-3-methyl-5-(4-methyl-1-oxo-1,3-dihydroisobenzofuran-5-yl)piperazin-1-yl)methyl)-1H-pyrazol-1-yl)pyridin-2-yl)methanesulfonamide] |  | 7.14 | 8.8 | 
25 | Cc1cc(-n2cc(CN3C[C@@H](c4ccc5c(c4C)COC5=O)N[C@@H](C)C3)n(C)c2=O)ccn1 [Example 266-I, 3-methyl-4-(((3S,5R)-3-methyl-5-(4-methyl-1-oxo-1,3-dihydroisobenzofuran-5-yl)piperazin-1-yl)methyl)-1-(2-methylpyridin-4-yl)-1,3-dihydro-2H-imidazol-2-one] |  | 7.44 | 3.1 | 
26 | COc1cc(N2CCC(CN3CCN[C@H](c4ccc5c(c4C)COC5=O)C3)C2)ncc1C#N (single isomer, unassigned) [Example 155-I] |  | 7.96 |  | 26
27 | CCOc1cc(-n2cc(CN3CCN[C@H](c4ccc5c(c4C)COC5=O)C3)cn2)ncc1C#N [Example 137-I, (R)-4-ethoxy-6-(4-((3-(4-methyl-1-oxo-1,3-dihydroisobenzofuran-5-yl)piperazin-1-yl)methyl)-1H-pyrazol-1-yl)nicotinonitrile] |  | 7.59 | 23 | 
